Each structure is given as a SMILES string.

Experiment [1] is described as follows: Concentration required for 50% growth inhibition of primary malignant melanoma C8146A cell lines. The experiment is classed as functional, cell-based.
The target in a further experiment is T1, Protein S100-B (Homo sapiens, UniProt P04271).
T1 sequence (P04271 whole entry): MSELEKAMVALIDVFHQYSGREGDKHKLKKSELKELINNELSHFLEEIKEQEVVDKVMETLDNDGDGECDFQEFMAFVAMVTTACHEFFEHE
Put plainly: Binding to holo-S100B protein.

A word on the IC50: it is the midpoint of a concentration-inhibition curve. The Kd is the free concentration of one partner at which half of the binding sites on the other are occupied at equilibrium, for simple one-to-one binding. Higher therefore signals weaker binding. In experiment [1], `N=C(N)NC(=N)Nc1cccc(Cl)c1Cl` gave an IC50 of 8 µM. At Protein S100-B, this molecule showed a Kd of 2 µM.
Turning to `Cc1cc(C)c(N2C(=O)c3ccc(C(=O)Nc4cc(C(=O)O)cc(C(=O)O)c4)cc3C2=O)c(C)c1`, the half-inhibitory concentration (IC50) in experiment [1] was 44 µM. Besides, binding at Protein S100-B was put at a Kd of 120 µM.
In experiment [1], `N=C(N)NC(=N)Nc1ccc(Cl)cc1C(=O)c1ccccc1` displayed an IC50 of 12 µM. For the same molecule, the equilibrium dissociation constant (Kd) on Protein S100-B stood at 4.5 µM.
`CC(C)(C)NC(=O)c1cccc(N2C(=O)c3ccc(C(=O)O)cc3C2=O)c1` showed a concentration for half-maximal inhibition (IC50) in experiment [1] above 100 µM. The molecule further registered a dissociation constant (Kd) on Protein S100-B of 8.1 µM.
Molecule `O=C(O)c1cc(N/N=C/c2ccc(-c3ccc(Cl)c(C(=O)O)c3)o2)ccc1Cl` displayed an IC50 in experiment [1] of 49 µM. At Protein S100-B, this molecule returned a dissociation constant (Kd) of 18.3 µM.
As to `Cc1c(NS(=O)(=O)c2ccc(NC(=O)CCC(=O)O)cc2)c(=O)n(-c2ccccc2)n1C`, in experiment [1], the concentration for half-maximal inhibition (IC50) was above 100 µM. The molecule also returned an equilibrium dissociation constant (Kd) at Protein S100-B of 4.5 µM.
As for `N=C(N)c1ccc(OCCCCCOc2ccc(C(=N)N)cc2)cc1` [PENTAMIDINE], inhibition in experiment [1] was half-maximal at 1.2 µM (IC50). On Protein S100-B, binding was characterised by a dissociation constant (Kd) of 1 µM.

The record behind these values is ChEMBL document CHEMBL1138776, “Identification and characterization of small molecule inhibitors of the calcium-dependent S100B-p53 tumor suppressor interaction” (J Med Chem, 2004).
